Laboratory results: publication PMC10692721, “Drug discovery for heart failure targeting myosin-binding protein C” (The Journal of Biological Chemistry, 2023)
Read-outs that look alike come from different tables or passages of the source.

Key:
[1] = test system: FMAL-actin/TMR-cC0-C2 interaction; experiment: FLT-FRET concentration-response assay, FMAL-actin plus TMR-cC0-C2; type: binding, human; conditions: for effect on FLT-FRET / binding between FMAL-actin and TMR-cC0-C2 (in words): unphosphorylated cC0-C2; for specificity of FLT-FRET effect for unphosphorylated over phosphorylated cC0-C2: effect on cC0-C2 compared to phosphorylated cC0-C2 (Tables 1 and 2)
Outline: (§1)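 Hits tested at eight concentrations (0.5–100 μM) and read on a high-throughput fluorescence lifetime plate reader. Hill fits applied only under certain conditions.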

[2] = test system: PKA-phosphorylated TMR-cC0-C2 (cC0-C2#P); experiment: FLT-TMR concentration-response assay, PKA-phosphorylated cC0-C2; type: binding, human; conditions: for cC0-C2#P FLT change (% change from DMSO, FLT of TMR-MyBP-C): 60 μM compound; for effect on FLT of PKA-phosphorylated TMR-cC0-C2 (in words): concentration-response, no actin
Outline: as §1

TMR-cC0-C2 = experiment: Selleck library HTS, 532 nm excitation (FLT of TMR-cC0-C2 in presence of FMAL-actin); type: binding, human; conditions: for 532-nm Δτ, Repeat 1 / 532-nm Δτ, Repeat 2: initial screen, 30 μM compound; for 532-nm z-score (based on avg Δτ): robust z-score, hit threshold ±4, 30 μM compound
[3] = test system: FMAL-actin/PKA-phosphorylated TMR-cC0-C2 interaction; experiment: FLT-FRET concentration-response assay, FMAL-actin plus PKA-phosphorylated TMR-cC0-C2; type: binding, human
Protocol: (§2) Compounds identified as initial hits were further examined to determine the concentration–response curves for seven conditions ([1]): FMAL-actin alone identified actin-binding compounds that alter the FLT of FMAL-actin ([2]).
(§3) Fluorescence lifetime (FLT) measurements were acquired using a high-throughput FLT plate reader (Fluorescence Innovations, Inc) ([14], [27]), provided by Photonic Pharma LLC. […] The observed waveforms were analyzed as described previously ([15], [28]).
(§4) The primary hits were dissolved in DMSO to make a 10 mM stock solution, which was serially diluted in 96-well mother plates. Hits were screened at eight concentrations (0.5–100 μM). […] Compounds (1 μl) were transferred from the mother plates into 384-well plates using a Mosquito HV liquid handler (TTP Labtech Ltd, Hertfordshire, UK). The same procedure of dispensing as for the pilot screening was applied in the concentration-response assays. Concentration dependence of the FLT-FRET (E/EDMSO) or FLT-TMR (Δτ) change data was fit to a Hill equation only under certain conditions to help guide the eye (Fig. 4).

[4] = test system: FMAL-actin/TMR-fC1-C2 interaction; experiment: FLT-FRET concentration-response assay, FMAL-actin plus TMR-fC1-C2; type: binding
Protocol: as §2, §3, §4

[5] = test system: TMR-cC0-C2 (C0-C2 fragment of human cMyBP-C); experiment: FLT-TMR concentration-response assay (FLT of TMR on cC0-C2, no actin); type: binding; conditions: for cC0-C2/cC0-C2#P (ratio of FLT changes) / cC0-C2 FLT change (% change from DMSO, FLT of TMR-MyBP-C): 60 μM compound; for effect on FLT of TMR-cC0-C2 (in words): concentration-response, no actin; for difference in effect on TMR FLT between unphosphorylated and phosphorylated TMR-cC0-C2: from Table 3
Outline: as §1

[6] = test system: FMAL-actin plus TMR-cC0-C2; experiment: Selleck library HTS, 473 nm excitation (FLT of FMAL-actin with TMR-cC0-C2, FLT-FRET); type: binding, human; conditions: for 473-nm Δτ, Repeat 1 / 473-nm Δτ, Repeat 2: initial screen, 30 μM compound; for 473-nm z-score (based on avg Δτ): robust z-score, hit threshold ±4, 30 μM compound
Outline: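 Donor fluorescence lifetime was then recorded. Waveforms were fit to a single exponential, and ΔFLT was obtained after a moving-median plate-gradient correction (half-row window), rescaled by the median DMSO lifetime.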

[7] = test system: TMR-fC1-C2 (C1-C2 of fast skeletal MyBP-C); experiment: FLT-TMR concentration-response assay, fC1-C2; type: binding; conditions: for cC0-C2/fC1-C2 (ratio of FLT changes) / fC1-C2 FLT change (% change from DMSO, FLT of TMR-MyBP-C): 60 μM compound; for effect on FLT of TMR-fC1-C2 (in words): concentration-response, no actin; for difference in effect on TMR FLT between unphosphorylated TMR-cC0-C2 and TMR-fC1-C2: from Table 3
Outline: as §1

Molecule: Clc1ccc(C(Cn2ccnc2)OCc2ccc(Sc3ccccc3)cc2)c(Cl)c1 (stereo not shown) [Fenticonazole nitrate]
- effect on FLT-FRET / binding between FMAL-actin and TMR-cC0-C2 (in words) [1]: does not have any effect
- cC0-C2#P FLT change (% change from DMSO, FLT of TMR-MyBP-C) [2]: −6.0%
- effect on FLT of PKA-phosphorylated TMR-cC0-C2 (in words) [2]: slightly decreases
- 532-nm Δτ, Repeat 1 (TMR-cC0-C2): -0.011 ns
- 532-nm Δτ, Repeat 2 (TMR-cC0-C2): -0.035 ns
- 532-nm z-score (based on avg Δτ) (TMR-cC0-C2): -1.35
- preference for increasing the binding of phosphorylated over unphosphorylated cC0-C2 (FLT-FRET) [3]: 5 fold
- effect on FLT-FRET / binding between FMAL-actin and PKA-phosphorylated TMR-cC0-C2 (in words) [3]: increases
- effect on FLT-FRET / binding between FMAL-actin and TMR-fC1-C2 (in words) [4]: does not have any effect
- cC0-C2/cC0-C2#P (ratio of FLT changes) [5]: 0.8
- cC0-C2 FLT change (% change from DMSO, FLT of TMR-MyBP-C) [5]: −4.7%
- effect on FLT of TMR-cC0-C2 (in words) [5]: slightly decreases
- 473-nm Δτ, Repeat 1 [6]: -0.069 ns
- 473-nm Δτ, Repeat 2 [6]: -0.104 ns
- 473-nm z-score (based on avg Δτ) [6]: -4.80
- cC0-C2/fC1-C2 (ratio of FLT changes) [7]: 11.8
- fC1-C2 FLT change (% change from DMSO, FLT of TMR-MyBP-C) [7]: 0.4%
- effect on FLT of TMR-fC1-C2 (in words) [7]: does not affect
- difference in effect on TMR FLT between unphosphorylated TMR-cC0-C2 and TMR-fC1-C2 [7]: 11.8 fold

Molecule: Tocofersolan
- fold effect on increased FRET (or binding) (Table 2) ([1]; comparison not given): fivefold or greater
- specificity of FLT-FRET effect for unphosphorylated over phosphorylated cC0-C2 [1]: 13–54 fold
- effect on FLT-FRET / binding between FMAL-actin and TMR-cC0-C2 (in words) [1]: affected the binding to actin
- cC0-C2#P FLT change (% change from DMSO, FLT of TMR-MyBP-C) [2]: 3.2%
- 532-nm Δτ, Repeat 1 (TMR-cC0-C2): 0.072 ns
- 532-nm Δτ, Repeat 2 (TMR-cC0-C2): 0.065 ns
- 532-nm z-score (based on avg Δτ) (TMR-cC0-C2): 4.23
- effect on FLT-FRET / binding between FMAL-actin and PKA-phosphorylated TMR-cC0-C2 (in words) [3]: no effect
- effect on FLT-FRET / binding between FMAL-actin and TMR-fC1-C2 (in words) [4]: affected the binding to actin
- cC0-C2/cC0-C2#P (ratio of FLT changes) [5]: 1.0
- cC0-C2 FLT change (% change from DMSO, FLT of TMR-MyBP-C) [5]: 3.3%
- 473-nm Δτ, Repeat 1 [6]: -0.166 ns
- 473-nm Δτ, Repeat 2 [6]: -0.159 ns
- 473-nm z-score (based on avg Δτ) [6]: -9.06
- cC0-C2/fC1-C2 (ratio of FLT changes) [7]: 1.2
- fC1-C2 FLT change (% change from DMSO, FLT of TMR-MyBP-C) [7]: 2.8%

Molecule: CCC(=O)O[C@H]1[C@H](O[C@@H]2[C@@H](C)[C@H](O[C@H]3C[C@@](C)(OC)[C@@H](O)[C@H](C)O3)[C@@H](C)C(=O)O[C@H](CC)[C@@](C)(O)[C@H](O)[C@@H](C)C(=O)[C@H](C)C[C@@]2(C)O)O[C@H](C)C[C@@H]1N(C)C [Erythromycin estolate]
- effect on FLT-FRET / binding between FMAL-actin and TMR-cC0-C2 (in words) [1]: decreased
- effect on FLT-FRET / binding between FMAL-actin and TMR-cC0-C2 (in words) ([1]; listed as Erthromycin estolate): biphasic effect
- cC0-C2#P FLT change (% change from DMSO, FLT of TMR-MyBP-C) [2]: −2.4%
- effect on FLT of PKA-phosphorylated TMR-cC0-C2 (in words) [2]: decreases
- 532-nm Δτ, Repeat 1 (TMR-cC0-C2): 0.002 ns
- 532-nm Δτ, Repeat 2 (TMR-cC0-C2): -0.031 ns
- 532-nm z-score (based on avg Δτ) (TMR-cC0-C2): -0.86
- effect on FLT-FRET / binding between FMAL-actin and PKA-phosphorylated TMR-cC0-C2 (in words) [3]: decreased
- effect on FLT-FRET / binding between FMAL-actin and PKA-phosphorylated TMR-cC0-C2 (in words) ([3]; listed as Erthromycin estolate): biphasic effect
- effect on FLT-FRET / binding between FMAL-actin and TMR-fC1-C2 (in words) [4]: decreased
- effect on FLT-FRET / binding between FMAL-actin and TMR-fC1-C2 (in words) ([4]; listed as Erthromycin estolate): biphasic effect
- cC0-C2/cC0-C2#P (ratio of FLT changes) [5]: 5.9
- cC0-C2 FLT change (% change from DMSO, FLT of TMR-MyBP-C) [5]: −14.1%
- effect on FLT of TMR-cC0-C2 (in words) [5]: affect
- effect on FLT of TMR-cC0-C2 (in words) ([5]; listed as Erthromycin estolate): decreases
- difference in effect on TMR FLT between unphosphorylated and phosphorylated TMR-cC0-C2 [5]: 5.9 fold
- 473-nm Δτ, Repeat 1 [6]: 0.149 ns
- 473-nm Δτ, Repeat 2 [6]: 0.101 ns
- 473-nm z-score (based on avg Δτ) [6]: 7.01
- cC0-C2/fC1-C2 (ratio of FLT changes) [7]: 6.7
- fC1-C2 FLT change (% change from DMSO, FLT of TMR-MyBP-C) [7]: −2.1%
- effect on FLT of TMR-fC1-C2 (in words) [7]: decreases
- difference in effect on TMR FLT between unphosphorylated TMR-cC0-C2 and TMR-fC1-C2 [7]: 6.7 fold

Molecule: COc1cc(Nc2ncc(F)c(Nc3ccc4c(n3)N(COP(=O)(O)O)C(=O)C(C)(C)O4)n2)cc(OC)c1OC [Fostamatinib (R788), Fostamatinib]
- specificity of FLT-FRET effect for unphosphorylated over phosphorylated cC0-C2 [1]: 5 fold
- effect on FLT-FRET / binding between FMAL-actin and TMR-cC0-C2 (in words) [1]: decreased
- cC0-C2#P FLT change (% change from DMSO, FLT of TMR-MyBP-C) [2]: 0.7%
- 532-nm Δτ, Repeat 1 (TMR-cC0-C2): -0.027 ns
- 532-nm Δτ, Repeat 2 (TMR-cC0-C2): -0.063 ns
- 532-nm z-score (based on avg Δτ) (TMR-cC0-C2): -2.72
- effect on FLT-FRET / binding between FMAL-actin and PKA-phosphorylated TMR-cC0-C2 (in words) [3]: decreased
- effect on FLT-FRET / binding between FMAL-actin and TMR-fC1-C2 (in words) [4]: decreased
- cC0-C2/cC0-C2#P (ratio of FLT changes) [5]: 3.3
- cC0-C2 FLT change (% change from DMSO, FLT of TMR-MyBP-C) [5]: 2.3%
- effect on FLT of TMR-cC0-C2 (in words) [5]: affect
- difference in effect on TMR FLT between unphosphorylated and phosphorylated TMR-cC0-C2 [5]: 3.3 fold
- 473-nm Δτ, Repeat 1 [6]: 0.110 ns
- 473-nm Δτ, Repeat 2 [6]: 0.046 ns
- 473-nm z-score (based on avg Δτ) [6]: 4.40
- cC0-C2/fC1-C2 (ratio of FLT changes) [7]: 5.8
- fC1-C2 FLT change (% change from DMSO, FLT of TMR-MyBP-C) [7]: 0.4%
- difference in effect on TMR FLT between unphosphorylated TMR-cC0-C2 and TMR-fC1-C2 [7]: 5.8 fold
